Laboratory results taken from paper PMC4945466 (Journal of medicinal chemistry, 2016).
Like-named read-outs stand apart in the source and are kept apart here.

Assays:
[1] = target: recombinant HIV-1 IN (integrase strand transfer) (Human immunodeficiency virus type 1 group M subtype B, UniProt P04585); assay: INST biochemical assay
[2] = tested on: HIV-1 IIIB in CEM-SS cells; assay: microbe, parasite or virus in culture; format: cell-based; conditions: for Antiviral Screening (10 μM) CPE reduction %: HIV-1 IIIB in CEM-SS cells, versus viral control
CEM-SS cells = assay: Cell viability / cytotoxicity in cytoprotection assay; format: cell-based
[3] = as above; format: cell-based; conditions: human
[4] = read-out: INST IC50, mean ± SD, at least three independent experiments

## CCNc1[nH]c(=O)n(O)c(=O)c1C(=O)NCCCl [Compound 50, 1-(Hydroxy)-N-(2-chloroethyl)-4-(ethylamino)-1,2,3,6-tetrahydro-2,6-dioxopyrimidine-5-carboxamide]
[1]
  IC50: > 100 µM

## CCNc1[nH]c(=O)n(O)c(=O)c1C(=O)NCc1ccc(F)c(F)c1 [Compound 42, N-(3,4-difluorobenzyl)-1-(hydroxy)-4-(ethylamino)-1,2,3,6-tetrahydro-2,6-dioxopyrimidine-5-carboxamide]
[2]
  Antiviral Screening (10 μM) CPE reduction %: inactive
CEM-SS cells; 10 μM, CEM-SS cells, versus cell control
  Antiviral Screening (10 μM) viability %: cytotoxic

## 1-(Hydroxy)-1,2,3,6-tetrahydro-2,6-dioxo-4-(phenylamino)pyrimidine-5-carboxamide [Compound 49]
[1]; [4]
  IC50: > 100 µM

## O=C(NCc1ccccc1)c1c(O)n(O)c(=O)[nH]c1=O [Compound 54, N-Benzyl-1,6-dihydroxy-2,4-dioxo-1,2,3,4-tetrahydropyrimidine-5-carboxamide]
[2]; Human immunodeficiency virus 1, IIIB, CEM-SS, 144 h, read-out: Antiviral Screening (10 μM) CPE reduction %
  inhibition at 10 µM: 26%
[3]
  viability at 6 days, 10 µM: 100%

## CCNc1[nH]c(=O)n(O)c(=O)c1C(=O)NCc1ccc(Cl)c(F)c1 [Compound 44, N-(4-Chloro-3-fluorobenzyl)-1-(hydroxy)-4-(ethylamino)-1,2,3,6-tetrahydro-2,6-dioxopyrimidine-5-carboxamide]
[2]; cytoprotection assay, CEM-SS cells
  TI (therapeutic index, CC50/EC50): 100

## CCNc1c(C(=O)NCc2ccc(F)cc2)c(=O)n(O)c(=O)n1C [Compound 52, N-(4-Fluorobenzyl)-3-(hydroxy)-6-(ethylamino)-1,2,3,4-tetrahydro-1-methyl-2,4-dioxopyrimidine-5-carboxamide]
[1]
  IC50: > 100 µM

## 3-(Benzyloxy)-6-(ethylamino)-N-(4-fluorobenzyl)-N-methyl-2,4-dioxo-1,2,3,4-tetrahydropyrimidine-5-carboxamide [Compound 53]
[1]; [4]
  IC50: 7 ± 3.3 µM
[2]
  Antiviral Screening (10 μM) CPE reduction %: 0%
CEM-SS cells; 10 µM
  Antiviral Screening (10 μM) viability %: 89%

## O=C(NCc1ccccc1)c1c(Nc2ccccc2)[nH]c(=O)n(O)c1=O [Compound 24, N-Benzyl-1-(hydroxy)-1,2,3,6-tetrahydro-2,6-dioxo-4-(phenylamino)pyrimidine-5-carboxamide]
[1]
  IC50: > 100 µM

## O=C(NCc1ccccc1)c1c(Nc2ccc(-c3ccccc3)cc2)[nH]c(=O)n(O)c1=O [Compound 25, N-Benzyl-1-(hydroxy)-1,2,3,6-tetrahydro-2,6-dioxo-4-(biphenylamino)pyrimidine-5-carboxamide]
[1]
  IC50: > 100 µM

## CCNc1[nH]c(=O)n(O)c(=O)c1C(=O)Oc1ccccc1 [Compound 51, Phenyl-1-(hydroxy)-4-(ethylamino)-1,2,3,6-tetrahydro-2,6-dioxopyrimidine-5-carboxylate]
[1]
  IC50: > 100 µM
